Laboratory results reported in US10065943B2, “Pyrrolidine derivatives as angiotensin II type 2 antagonists” (NOVARTIS AG, priority 2015, dated 2018).

Legend:
human AT2 receptor = molecular target: T1, human AT2 receptor (Homo sapiens, UniProt P50052); assay: AT2 receptor binding ([125I]CGP 42112A displacement, CHO-K1 membranes); details: [125I]CGP 42112A 0.05 nM, membranes of CHO-K1 cells expressing human AT2 receptor; Ki from IC50 by Cheng-Prussoff equation; read-out: Ki
T1 construct: membranes prepared in house
T1 sequence (P50052 1-363): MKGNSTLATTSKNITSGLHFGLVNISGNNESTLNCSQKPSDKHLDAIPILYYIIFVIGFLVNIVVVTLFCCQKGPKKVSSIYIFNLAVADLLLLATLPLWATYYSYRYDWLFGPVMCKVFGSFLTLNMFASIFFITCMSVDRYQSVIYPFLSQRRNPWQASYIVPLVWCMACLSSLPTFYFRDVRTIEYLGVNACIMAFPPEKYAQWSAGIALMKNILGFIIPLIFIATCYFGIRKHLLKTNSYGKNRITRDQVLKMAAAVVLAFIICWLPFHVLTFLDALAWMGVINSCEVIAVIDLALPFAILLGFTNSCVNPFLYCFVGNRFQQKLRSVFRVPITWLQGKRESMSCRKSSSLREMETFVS
Source text: Reagents were purchased from Sigma-Aldrich, unless otherwise specified. Dialyzed fetal bovine serum (FBS) was from Life Technologies (cat. no. 10073772). Valiscreen® human angiotensin AT2 receptor cell line (cat. no. ES-070-C), [^125I]CGP 42112A (cat. no. NEX324025UC) and MicroScint™ 40 (cat. no. 6013641) were purchased from PerkinElmer. CGP 42112A (cat. no. 2569) and PD 123,319 ditrifluoroacetate (cat. no. 1361) were from Tocris Biosciences.
• 1. Growth medium • EX-CELL® CHO DHFR^− medium • 10% FBS, dialysed • 1 mM sodium pyruvate • 2 mM L-glutamine • 2. Harvesting buffer • PBS • 2 mM EDTA • 3. Suspension buffer • 50 mM Tris-HCl, pH 7.4 • 10 mM EDTA • 4. Resuspension buffer • 50 mM Tris-HCl, pH 7.4 • 0.1 mM EDTA • 0.1% sucrose • 5. Binding assay buffer • 50 mM Tris-HCl, pH 7.4 • 5 mM MgCl2 • 1 mM EDTA • 0.1% gelatin • 6. Wash buffer • 50 mM Tris-HCl, pH 7.4 Procedure for Membrane Preparation • Valiscreen® CHO-K1 cells stably expressing the human AT2 receptor were cultured in growth medium. • Cells were seeded into T-175 flasks and grown to 70-80% confluence. • Medium was removed from confluent flasks and cells were washed with warm PBS. • Cells were harvested by incubating with harvesting buffer for 10 min at 37° C., and then transferred to a centrifuge tube on ice. • Cells were centrifuged at 200 g for 5 min at 4° C. • Cell pellets were homogenised in ice-cold suspension buffer. • Homogenates were centrifuged at 40,000 g for 15 min at 4° C. • Pellets were resuspended in ice-cold resuspension buffer and centrifuged at 40,000 g for 15 min at 4° C. • Final pellets were homogenised in ice-cold resuspension buffer. • Protein concentrations were determined by BCA assay method with BSA as standard. Compound Preparation
Compounds were prepared from 10 mM stock solutions in 100% DMSO. Dilutions were made using electronic multichannel pipettes.
• Compounds dilutions were prepared in 100% DMSO at 100× final assay concentration. • Compounds were diluted in 100% DMSO to the appropriate maximal concentration. • 30 μL compound was added to row A. • 21.6 μL of 100% DMSO was added to rows B-H. • Transfer 10 μL from row A into row B (half log dilution). • Transfer 10 μL from row B into row C (half log dilution). • Transfer 10 μL from row C into row D (half log dilution). • Transfer 10 μL from row D into row E (half log dilution). • Transfer 10 μL from row E into row F (half log dilution). • Transfer 10 μL from row F into row G (half log dilution). • Transfer 10 μL from row G into row H (half log dilution). Working Plate Preparation (96-Well Plate) • Compounds were diluted 10-fold in assay buffer. • 10 μL compound solution from dose plate was transferred to corresponding well of working plate. • 90 μL assay buffer was added to the wells of working plate. • Working solutions contained 10% DMSO in assay buffer (1% DMSO final assay concentration). Controls • Total binding (high control) was determined in the absence of unlabelled ligand. A solution of 10% DMSO in assay buffer was prepared. • Non-specific binding (low control) was determined in the presence of a vast excess (10 μM) of PD 123,319. 1 mM stock solution of PD 123,319 in water was diluted 10-fold with 10% DMSO in assay buffer. Assay Plate Preparation (96-Well Plate)
15 μL compound solution was transferred to duplicate wells of assay plate. 5 compounds were tested per plate. 15 μL control solutions were transferred to columns 1 and 12 of assay plate.

[1] = Human hepatocyte stability assay; assay type: in vitro ADME; details: cryopreserved hepatocytes, 1 μM test compound, 0.5 million cells/mL, pH 7.4, 37° C., 60 min; for half-life at 1 μM: read-out: T½
Protocol: A human hepatocyte (cryopreserved) incubation mixture containing, 0.5 million cells/mL and phosphate buffered saline (pH 7.4) was pre-incubated at 37° C. and the reaction then initiated by the addition of 1 μM test compound. The incubations were performed in duplicate. The final organic concentration was 1% (consisting of 90% acetonitrile and 10% DMSO). Positive control markers for Phase I and II metabolism were included. Samples were removed at 6 time-points over 60 min and each reaction terminated by the addition of methanol containing internal standard. After vortexing and centrifugation, the resultant supernatant was analysed by UPLC-MS.
Intrinsic clearance is calculated from the resulting concentration-time profile.
Where C(t) is the compound concentration at time t, C(0) is the starting concentration and k is the elimination rate constant.
The ln(concentration) vs time profile can be mathematically described by: ln C(t)=ln C(0)−kt
Where k represents the slope of the regression line.
Solving for k results in:
Once k is known, half-life (t½) can be calculated using: […]
Furthermore, CLint can be calculated by introducing the cell density ([cell]) in 10^6/ml: […]

Ki (human AT2 receptor)	hepatocyte CLint at 1 μM [1]	half-life at 1 μM [1]	SMILES
2.6 nM	< 3 µL/min/1e6 cells	> 7.67 h	O=C(NS(=O)(=O)C1CC1)[C@@H]1C[C@H](N2CCCOc3cc(F)c(F)cc32)CN1C(=O)C(c1ccccc1)c1ccccc1 [Compound 36, (2S,4S)—N-(Cyclopropylsulfonyl)-4-(7,8-difluoro-3,4-dihydrobenzo[b][1,4]oxazepin-5(2H)-yl)-1-(2,2-diphenylacetyl)pyrrolidine-2-carboxamide]
3.7 nM	< 3 µL/min/1e6 cells	> 7.67 h	C[C@@]1(C(=O)O)C[C@H](N2CCCOc3cc(F)c(F)cc32)CN1C(=O)C(c1ccccc1)c1ccccc1 [Compound 32, (2S,4S)-4-(7,8-Difluoro-3,4-dihydrobenzo[b][1,4]oxazepin-5(2H)-yl)-1-(2,2-diphenylacetyl)-2-methylpyrrolidine-2-carboxylic acid]
10.2 nM			CN(C)S(=O)(=O)NC(=O)[C@@H]1C[C@H](N2CCCOc3cc(F)c(F)cc32)CN1C(=O)C(c1ccccc1)c1ccccc1 [Compound 39, (2S,4S)-4-(7,8-Difluoro-3,4-dihydrobenzo[b][1,4]oxazepin-5(2H)-yl)-N—(N,N-dimethylsulfamoyl)-1-(2,2-diphenylacetyl)pyrrolidine-2-carboxamide]
